{"source": "patent US20260108584A1", "about": "“TREATMENT OF OBESITY-ASSOCIATED INFLAMMATORY CONDITIONS” (THE UNIVERSITY OF BIRMINGHAM, priority 2023, published 2026)", "key": {"[1]": {"system": "J774 murine macrophages cells", "experiment": "In vitro cytokine analysis, LPS-stimulated J774 cells (ELISA)", "assay_type": "cell-based", "conditions": "10 ng ml^−1 PEPITEM 15 minutes pre-treatment, LPS (10 μg ml^−1) 24 h, vs PBS (FIG. 7)", "experimental": "J774 murine macrophages cells were pre-treated with 10 ng ml^−1 PEPITEM (SVTEQGAELSNEER; Cambridge Research Biochemicals Limited; Cambridge, UK) or phosphate buffered saline (PBS—as control) for 15 minutes and then stimulated with LPS (10 μg ml^−1) for 24 h. Cell supernatants were collected and analysed for the protein expression of IL-6 and TNF-α by ELISA."}, "pancreatic islets [2]": {"system": "pancreatic islets", "experiment": "Prophylactic PEPITEM, 6 weeks HFD: pancreatic islet immunofluorescence imaging", "assay_type": "in vivo, C57BI/6J wild type (WT) mice", "experimental": "(§1) Eight-week-old, male, C57BI/6J wild type (WT) mice were purchased from Charles River and were maintained in a specific pathogen free facility, with free access to food. Environmental conditions were: 21±2° C., 55±10% relative humidity and a 12 hour light-dark cycle. Mice were fed high fat diet (HFD) containing 60% fat (cat no. D12492, Research Diets, INC) for up to 12 weeks. […] Body weight was assessed weekly. Intraperitoneal glucose tolerance tests (IPGTT) were assessed at 3, 6, 8, and 12 weeks in mmol/l using Contour XT glucometer as described in Nasteska, D. et al., JCI Insight 6, doi: 10.1172/jci.insight. […]\n(§2) Slides were imaged using Zeiss Axioscan 7 Slide Scanner at 20× magnification using the same acquisition parameters for each slide. Images were initially processed with ZEN Software (Black Edition v2.2) into digital arrays, which were subsequently analysed with ImageJ (1.53K). […] Average number of islets and islet area were determined and expressed as number or area/10,000 μm^2 of the whole pancreatic section area, as previously described by Slavin, B et al., Anat. […]"}, "[3]": {"experiment": "Prophylactic PEPITEM, 6 weeks HFD: body weight and IPGTT", "assay_type": "in vivo, C57BI/6J wild type (WT) mice", "experimental": "(§3) Eight-week-old, male, C57BI/6J wild type (WT) mice were purchased from Charles River and were maintained in a specific pathogen free facility, with free access to food. Environmental conditions were: 21±2° C., 55±10% relative humidity and a 12 hour light-dark cycle. Mice were fed high fat diet (HFD) containing 60% fat (cat no. D12492, Research Diets, INC) for up to 12 weeks. Alzet mini pumps 2006 (Charles River) containing 3.5 mg/ml of PEPITEM (SVTEQGAELSNEER-PEG (352)-Amide; Cambridge Research Biochemicals Limited; Cambridge, UK) or phosphate buffered saline (PBS) were implanted at baseline (prophylactic administration) or following 6 weeks of HFD (therapeutic administration), continuously releasing 0.822 mg of content/week. Body weight was assessed weekly. Intraperitoneal glucose tolerance tests (IPGTT) were assessed at 3, 6, 8, and 12 weeks in mmol/l using Contour XT glucometer as described in Nasteska, D. et al., JCI Insight 6, doi: 10.1172/jci.insight. 140288 (2021). Mice were culled […] blood collected into ethylenediaminetetraacetic acid (EDTA) coated eppendorfs^RTM. The peritoneal cavity was lavaged with 5 mM EDTA, spleen and inguinal lymph nodes were isolated and stored in PBS. Gonadal visceral fat pads and abdominal subcutaneous fat was stored in RPMI 1640 media (Gibco) containing 2% BSA and pancreas was FFPE as described in Nasteska, D. et al (supra)."}, "[4]": {"experiment": "Therapeutic PEPITEM (last 6 of 12 weeks HFD): body weight and IPGTT", "assay_type": "in vivo, C57BI/6J wild type (WT) mice", "experimental": "as §3"}, "leukocyte trafficking [5]": {"system": "leukocyte trafficking", "experiment": "Prophylactic PEPITEM, 6 weeks HFD: leukocyte subsets by flow cytometry", "assay_type": "in vivo, C57BI/6J wild type (WT) mice", "experimental": "as §3\n(§4) All tissue samples were weighed prior to processing. Fat tissue was broken into pieces, incubated in an enzyme cocktail consisting of 200 μg/ml Collagenase P (Sigma), 800 μg/ml Collagenase Dispase, 100 μg/ml DNase (both Merck) diluted in Roswell Park Memorial Institute medium (RPMI) containing 2% fetal bovine serum (FBS) at 37° C. for 30 min before being passed through 70 UM filter. Samples were washed by centrifugation in RPMI containing 2% FBS at 400 g (g-force) for 10 minutes and the stromal vascular fraction re-suspended in red blood cell (RBC) lysis buffer for 10 minutes. Samples were then washed by centrifugation at 400 g and re-suspended in RPMI containing 2% FBS. The spleen and lymph node were crushed through a […] filter. Spleen, lymph node and blood samples were all incubated in the RBC lysis buffer as described prior to re-suspension in magnetic-activated cell sorting (MACS) buffer. Peritoneal lavage fluid (PLF) were centrifuged at 400 g for 5 minutes and the cells were resuspended in MACS buffer.\n(§5) All samples were blocked with Fc receptor (FcR) blocker (Miltenyi Biotec) prior to staining with the following of antibodies and Zombie Aqua (Biolegend) for 20 minutes at 4° C. prior to washing and fixation with 2% paraformaldehyde (PFA): anti-CD45.2 BV605 (clone 104; Biolegend), anti-CD3 PECy7 (clone 145-2c11), anti-CD4 eFluor450 (clone GK1.5), anti-CD8 PE-TexasRed ^RTM (clone 5H10), anti-CD44 FITC (clone IM7), anti-CD25 AF700 (clone PC61.5), anti-KLRG1 APC-eFluor780 (clone 2F1), anti-CD62L PE (clone MEL-14), anti-CD19-APC (clone 1D3), anti-CD45 APC-CY7 (clone 104), F4/80 FITC (clone BM8), anti-CD11c PE-Cy7 (clone N418), anti-Gp38 PE (clone 8.1.1; all from Thermofisher); anti-CD23 BV421 (clone B3B4), anti-CD93 BV650 (clone AA4.1), anti-CD43 PerCp-Cy5.5 (clone S7), anti-CD21/35 PE (clone 7G6), anti-Siglec F TexasRed^RTM (clone E50-2440), Ly6G APC (clone 1A8; all from BD). Compensation controls were generated using the cells isolated from the spleen. Immediately prior to analysis CountBright beads (Invitrogen) were added and samples were acquired using Fortessa-X20 and data analysed offline using FlowJo^RTM (V-10.2.6) (FIG. 4)."}, "leukocyte trafficking [6]": {"system": "leukocyte trafficking", "experiment": "Therapeutic PEPITEM (last 6 of 12 weeks HFD): leukocyte subsets by flow cytometry", "assay_type": "in vivo, C57BI/6J wild type (WT) mice", "experimental": "as §3, §4, §5"}, "pancreatic islets [7]": {"system": "pancreatic islets", "experiment": "Therapeutic PEPITEM (last 6 of 12 weeks HFD): pancreatic islet immunofluorescence imaging", "assay_type": "in vivo, C57BI/6J wild type (WT) mice", "experimental": "as §1, §2"}}, "data": [{"substance": "PEPITEM [SVTEQGAELSNEER, 14-amino-acid immunopeptide derived from 14.3.3.ζδ]", "values": [{"measurement": "amount of IL-6 secreted", "setting": "[1]", "result": "significant reduction"}, {"measurement": "amount of TNFalpha secreted", "setting": "[1]", "result": "significant reduction"}, {"measurement": "number of pancreatic islets", "setting": "pancreatic islets [2]; vs PBS (FIG. 1(C))", "result": "no effect"}, {"measurement": "individual area of pancreatic islets", "setting": "pancreatic islets [2]; vs PBS (FIG. 1(D))", "result": "significantly reduced"}, {"measurement": "body weight", "setting": "[3]; 6 weeks HFD, prophylactic mini pump, vs PBS (FIG. 5(A))", "result": "unaffected"}, {"measurement": "fasting glucose tolerance or insulin resistance", "setting": "[3]; week 3 or 6 of HFD, prophylactic, vs PBS (FIG. 5(B))", "result": "no effect"}, {"measurement": "glucose tolerance", "setting": "[4]; 8 or 12 weeks of diet, therapeutic (FIG. 5(D))", "result": "no effect"}, {"measurement": "weight of the mouse", "setting": "[4]; 12 weeks HFD, therapeutic (FIG. 5(C))", "result": "no effect"}, {"measurement": "number of T-cell subsets, B-cell subsets, neutrophils, eosinophils or macrophages in the blood, inguinal lymph node or spleen", "setting": "leukocyte trafficking [5]; 6 weeks HFD, prophylactic (FIG. 6)", "result": "no effect"}, {"measurement": "T-cells (CD3+) in visceral adipose tissue", "setting": "leukocyte trafficking [5]; 6 weeks HFD, prophylactic, vs HFD control (FIG. 1(E))", "result": "Significantly fewer"}, {"measurement": "CD4+ T cells in visceral adipose tissue", "setting": "leukocyte trafficking [5]; 6 weeks HFD, prophylactic, vs HFD control (FIG. 1(F))", "result": "Significantly fewer"}, {"measurement": "KLRG1+CD3+ T-cells in visceral adipose tissue", "setting": "leukocyte trafficking [5]; 6 weeks HFD, prophylactic, vs HFD control (FIG. 1(G))", "result": "Significantly fewer"}, {"measurement": "T-cells (CD3+) in peritoneal cavity", "setting": "leukocyte trafficking [5]; 6 weeks HFD, prophylactic, vs HFD control (FIG. 1(H))", "result": "Significantly fewer"}, {"measurement": "KLRG1+CD3+ T-cells in peritoneal cavity", "setting": "leukocyte trafficking [5]; 6 weeks HFD, prophylactic, vs HFD control (FIG. 1(I))", "result": "Significantly fewer"}, {"measurement": "macrophages within the peritoneal cavity", "setting": "leukocyte trafficking [5]; 6 weeks HFD, prophylactic, vs PBS (FIG. 1(J)), back to levels of chow-fed mice", "result": "significant reduction"}, {"measurement": "absolute numbers of macrophages in the VAT", "setting": "leukocyte trafficking [5]; HFD-fed mice, model (6 or 12 weeks) not specified", "result": "did not influence"}, {"measurement": "CD3+KLRG1+ T-cells numbers in the peritoneal cavity", "setting": "leukocyte trafficking [6]; therapeutic (FIG. 2(H))", "result": "no effect"}, {"measurement": "number of CD3+KLRG1+ T-cells in the blood", "setting": "leukocyte trafficking [6]; therapeutic (FIG. 2(I))", "result": "lower"}, {"measurement": "number of age-associated B-cells in the blood", "setting": "leukocyte trafficking [6]; therapeutic (FIG. 2(J))", "result": "lower"}, {"measurement": "number of neutrophils in the blood", "setting": "leukocyte trafficking [6]; therapeutic (FIG. 2(K))", "result": "lower"}, {"measurement": "composition of leukocyte subsets in subcutaneous adipose tissue", "setting": "leukocyte trafficking [6]; therapeutic (data not shown)", "result": "no effect"}, {"measurement": "B-cell numbers in the spleen", "setting": "leukocyte trafficking [6]; therapeutic, vs PBS (FIG. 3(E))", "result": "elevated"}, {"measurement": "age-associated B-cell numbers in the spleen", "setting": "leukocyte trafficking [6]; therapeutic, vs PBS (FIG. 3(F))", "result": "elevated"}, {"measurement": "number of CD45+ leukocytes in the spleen", "setting": "leukocyte trafficking [6]; therapeutic, vs control animals (FIG. 3(A))", "result": "increased"}, {"measurement": "number of CD3+ T-cells in the spleen", "setting": "leukocyte trafficking [6]; therapeutic, vs control animals (FIG. 3(B))", "result": "increased"}, {"measurement": "number of CD45+ leukocytes in the inguinal lymph node", "setting": "leukocyte trafficking [6]; therapeutic, vs control animals (FIG. 3(C))", "result": "increased"}, {"measurement": "number of CD3+ T-cells in the inguinal lymph node", "setting": "leukocyte trafficking [6]; therapeutic, vs control animals (FIG. 3(D))", "result": "increased"}, {"measurement": "number of CD3+ T-cells in the VAT", "setting": "leukocyte trafficking [6]; therapeutic, vs vehicle control (FIG. 2(D))", "result": "significant reduction"}, {"measurement": "number of CD4+ T-cells in the VAT", "setting": "leukocyte trafficking [6]; therapeutic, vs vehicle control (FIG. 2(E))", "result": "significant reduction"}, {"measurement": "number of CD3+KLRG1+ T-cells in the VAT", "setting": "leukocyte trafficking [6]; therapeutic, vs vehicle control (FIG. 2(F))", "result": "significant reduction"}, {"measurement": "macrophage numbers in the peritoneal cavity", "setting": "leukocyte trafficking [6]; therapeutic, vs vehicle control (FIG. 2(G))", "result": "significant reduction"}, {"measurement": "overall number of islets", "setting": "pancreatic islets [7]; vs control mice (FIG. 2(B))", "result": "without affecting"}, {"measurement": "pancreatic islet size", "setting": "pancreatic islets [7]; vs control mice (FIG. 2(C))", "result": "significantly reduced"}]}]}
